Laboratory results from US11446270B2, “Leonurine crystal and use thereof in preparation of insulin sensitizer, hypoglycemic drug and lipid-lowering drug” (ZHUHAI HENGQIN NEW DISTRICT ZHONGZHU ZHENGTAI MEDICAL …, priority 2017, dated 2022).
“Also recorded” adds a separate entry of the source.

Tested on: ApoE knockout mice
Test: Serum lipids in hyperlipidemia ApoE knockout mice on high fat diet
Type: in vivo
Details: 4 weeks
Description: Fifteen C57BL/6J mice (male, 6-8 weeks) and seventy-five ApoE knockout mice (male, 6-8 weeks) were used for experiments. C57BL/6J mice were fed with normal diet, and ApoE knockout mice were fed for 1 week with a diet of normal/high fat diet ratio of 1/1.
Mice were weighed before administered drugs every week, where the dosage of the drug for mice is calculate according to the weight; and housed under 24±1° C. room temperature and 55±5% air humidity condition, and allowed enough food and water ad libitum. After the drug administration continuously for 4 weeks, the mice were anesthetized with pentobarbital sodium according to body weight. Blood (0.5 ml per mouse) was drawn from the inner canthus vein for hematology analysis. Hematology analysis: blood samples were let for standing for 2 h and centrifuged (3000 rpm, 10 min, 4° C.) to obtain serum. The total cholesterol (TC), triacylglycerol (TG) and low-density cholesterol (LDL-C) levels in the serum samples were assessed using automatic biochemical analyzer. Statistical analysis: GraphPad Prism 5 software was used to analyze and draw figure. Results were expressed as the mean±standard (mean±SD), and statistical analysis was performed by one-way analysis of variance (ANOVA) or student's t test. A difference with P<0.05 was considered statistically significant. Statistical significance was set at *P<0.05, **P<0.01, ***P<0.001 versus the model group.

[1] = dose not stated, listed as leonurine crystal form A
[2] = middle dose group 20 mg/kg/day intragastric, vs model group, listed as leonurine crystal form A

Structure (SMILES): COc1cc(C(=O)OCCCCNC(=N)N)cc(OC)c1O [crystal form A, 4-guanidino-1-butyl 4-hydroxy-3,5-dimethoxybenzoate]
- serum low-density lipoprotein / low-density cholesterol (LDL-C) [1]: reduce; also recorded: significantly decrease
- serum total cholesterol (TC) [1]: reduce; also recorded: significantly decrease
- serum triglycerides / triacylglycerol (TG) [1]: reduce; also recorded: significantly decrease
- serum total cholesterol (TC) (middle dose group 20 mg/kg/day intragastric, vs model group): reduced
- serum low-density cholesterol (LDL-C) [2]: reduced; also recorded: decrease
- serum triacylglycerol (TG) [2]: reduced; also recorded: decrease
